Reference: patent publication US8796313B2, “Substituted dihydroisoindolones as allosteric modulators of glucokinase” (Janssen Pharmaceutica N.V., priority 2005, dated 2014)

Biological target: T1, human pancreas Glucokinase (GK) (Homo sapiens, UniProt P35557)
T1 construct: His6; made in house; host or cells: Escherichia coli
T1 sequence (P35557 1-465): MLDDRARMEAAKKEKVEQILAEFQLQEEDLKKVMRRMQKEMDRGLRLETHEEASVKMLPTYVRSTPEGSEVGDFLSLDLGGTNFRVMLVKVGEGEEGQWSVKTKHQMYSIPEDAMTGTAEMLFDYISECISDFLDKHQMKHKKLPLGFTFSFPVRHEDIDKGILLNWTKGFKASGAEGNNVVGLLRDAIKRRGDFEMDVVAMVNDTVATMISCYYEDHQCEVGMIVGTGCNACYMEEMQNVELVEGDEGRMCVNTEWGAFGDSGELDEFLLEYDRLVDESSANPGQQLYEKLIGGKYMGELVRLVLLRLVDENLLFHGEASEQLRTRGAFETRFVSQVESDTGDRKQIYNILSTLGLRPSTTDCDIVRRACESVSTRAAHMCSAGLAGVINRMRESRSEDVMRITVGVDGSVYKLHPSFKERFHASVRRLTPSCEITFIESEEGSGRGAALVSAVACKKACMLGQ
Assay: Glucokinase enzyme assay, pancreas GK
Format: biochemical
Conditions: for activation at 50 µM: increase in GK activity above vehicle control, compound 50 μM, 12 mM glucose; for EC50: concentration that produces 50% activation above vehicle control; for EC100%: concentration that produces 100% activation above vehicle control
Text: An enzymatic Glucokinase (GK) assay using purified recombinant human liver/pancreas enzyme was used to evaluate the effects of potential small molecule modulators.
In this assay, GK catalyzes glucose phosphorylation in the presence of ATP. The product of this reaction, glucose-6-phosphate, was then oxidized by an excess of glucose-6-phosphate dehydrogenase to produce gluconate-6-phosphate with concomitant reduction of nicotinamide adenine dinucleotide (NAD). […] Human GK (Liver/Pancreas) was expressed in Escherichia coli as a (His) 6-tagged fusion protein and was purified by metal chelate affinity chromatography. The assay was performed in a final incubation volume of 80 μl in a 96-well clear low UV absorption plates. The incubation mixture consisted of 25 mM HEPES, 2 mM MgSO4, 1 mM dithiothreotol (DTT), 1 mg/mL bovine serum albumin (BSA), 1 mM ATP, 1 mM NAD, and 12 mM glucose, 10 units per mL glucose-6-phosphate dehydrogenase, and +/−300 ng per mL GK. For determination of the affinity (Km) and Vmax, different concentrations of glucose ranging from 0.5 mM to 40 mM were used in the assay; see Grimsby, J., Sarabu, R.; Grippo, J. F.; et. al. Science 2003, 301, 370-373. […] EC50% (μM) was calculated as the effective concentration of the compound that produces 50% activation above the vehicle control, and EC100% (μM) was calculated as the effective concentration of the compound that produces 100% activation above the vehicle control.

## O=C(CC1c2ccccc2C(=O)N1Cc1ccc(F)cc1)Nc1ccc(C(=O)O)cn1 (stereo not drawn) [Compound 6, 6-{2-[2-(4-Fluoro-benzyl)-3-oxo-2,3-dihydro-1H-isoindol-1-yl]-acetylamino}-nicotinic acid]
  activation at 50 µM: 7.92%

## O=C(CCC1c2c(F)cccc2C(=O)N1Cc1ccc(F)cc1)Nc1ccc(Cl)cn1 (stereo not drawn) [Compound 44, N-(5-Chloro-pyridin-2-yl)-3-[7-fluoro-2-(4-fluoro-benzyl)-3-oxo-2,3-dihydro-1H-isoindol-1-yl]-propionamide]
Cell states @ 5 μM instead of the head's 50 μM
  % Activation @ 5 μM: 168 @ 5 μM %
  EC50: 71 nM
  EC100%: 0.375 µM

## O=C(CCC1c2c(Cl)ccc(Cl)c2C(=O)N1Cc1ccc(F)cc1)Nc1ccccn1 (stereo not drawn) [Compound 39, 3-[4,7-Dichloro-2-(4-fluoro-benzyl)-3-oxo-2,3-dihydro-1H-isoindol-1-yl]-N-pyridin-2-yl-propionamide]
  EC50: 433 nM
  EC100%: 2.5 µM
  activation at 50 µM: 206%

## COC(=O)c1ccc(NC(=O)CC[C@@H]2c3c(F)cccc3C(=O)N2Cc2ccc(F)cc2)nc1 [Compound 50, (R)-6-{3-[7-Fluoro-2-(4-fluoro-benzyl)-3-oxo-2,3-dihydro-1H-isoindol-1-yl]-propionylamino}-nicotinic acid methyl ester]
  activation at 50 µM: 38.6%

## O=C(CCC1c2c(F)cccc2C(=O)N1Cc1ccc(F)cc1)Nc1ncc(Br)s1 (stereo not drawn) [Compound 27, N-(5-Bromo-thiazol-2-yl)-3-[7-fluoro-2-(4-fluoro-benzyl)-3-oxo-2,3-dihydro-1H-isoindol-1-yl]-propionamide]
  EC50: 40000 nM
  activation at 50 µM: 65%

## COc1ccc(CN2C(=O)c3ccccc3C2CCC(=O)Nc2ccc(C(=O)O)cn2)cc1 (stereo not drawn) [Compound 8, 6-{3-[2-(4-Methoxy-benzyl)-3-oxo-2,3-dihydro-1H-isoindol-1-yl]-propionylamino}-nicotinic acid]
  EC50: 3200 nM
  EC100%: 11 µM
  activation at 50 µM: 167%

## CCOC(=O)c1csc(NC(=O)CCC2c3c(F)ccc(F)c3C(=O)N2Cc2ccc(F)cc2)n1 (stereo not drawn) [Compound 21, 2-{3-[4,7-Difluoro-2-(4-fluoro-benzyl)-3-oxo-2,3-dihydro-1H-isoindol-1-yl]-propionylamino}thiazole-4-carboxylic acid ethyl ester]
  EC50: 3100 nM
  EC100%: 26.6 µM
  activation at 50 µM: 94.4%

## O=C(Nc1ccccn1)OCCC1c2c(F)cccc2C(=O)N1Cc1ccc(F)cc1 (stereo not drawn) [Compound 16, Pyridin-2-yl-carbamic acid 2-[7-fluoro-2-(4-fluoro-benzyl)-3-oxo-2,3-dihydro-1H-isoindol-1-yl]-ethyl ester]
  activation at 50 µM: 13.8%

## O=C(CCC1c2c(F)cccc2C(=O)N1Cc1ccc(-n2cccc2)cc1)Nc1ccc(F)cn1 (stereo not drawn) [Compound 42, 3-[7-Fluoro-3-oxo-2-(4-pyrol-1-yl-benzyl)-2,3-dihydro-1H-isoindol-1-yl]-N-(5-fluoro-pyridin-2-yl)-propionamide]
  EC50: 182 nM
  EC100%: 1.7 µM
  activation at 50 µM: 168%

## CCOC(=O)c1ccnc(NC(=O)CCC2c3c(F)cccc3C(=O)N2Cc2ccc(F)cc2)c1 (stereo not drawn) [Compound 23, 2-{3-[7-Fluoro-2-(4-fluoro-benzyl)-3-oxo-2,3-dihydro-1H-isoindol-1-yl]-propionylamino}-isonicotinic acid ethyl ester]
  activation at 50 µM: 30.6%

## O=C(CCC1c2c(F)cccc2C(=O)N1Cc1ccc(F)cc1)Nc1ccc(Cl)nn1 (stereo not drawn) [Compound 43, N-(6-Chloro-pyridazin-3-yl)-3-[7-fluoro-2-(4-fluoro-benzyl)-3-oxo-2,3-dihydro-1H-isoindol-1-yl]-Propionamide]
  EC50: 629 nM
  EC100%: 5.2 µM
  activation at 50 µM: 152%

## O=C(CCC1c2cccc(Cl)c2C(=O)N1Cc1ccc(F)cc1)Nc1ccc(Br)cn1 (stereo not drawn) [Compound 38, N-(5-Bromo-pyridin-2-yl)-3-[4-chloro-2-(4-fluoro-benzyl)-3-oxo-2,3-dihydro-1H-isoindol-1-yl]-propionamide]
  EC50: 173 nM
  EC100%: 0.615 µM
  activation at 50 µM: 309%

## N#Cc1ccc(NC(=O)CCC2c3c(F)cccc3C(=O)N2Cc2ccc(F)cc2)nc1 (stereo not drawn) [Compound 47, N-(5-Cyano-pyridin-2-yl)-3-[7-fluoro-2-(4-fluoro-benzyl)-3-oxo-2,3-dihydro-1H-isoindol-1-yl]-propionamide]
  EC50: 420 nM
  EC100%: 15 µM
  activation at 50 µM: 114%

## O=C(CCC1c2cccc(Cl)c2C(=O)N1Cc1ccc(F)cc1)Nc1ccccn1 (stereo not drawn) [Compound 35, 3-[4-chloro-2-(4-fluoro-benzyl)-3-oxo-2,3-dihydro-1H-isoindol-1-yl]-N-pyridin-2-yl-propionamide]
  EC50: 230 nM
  EC100%: 0.75 µM
  activation at 50 µM: 306%

## NS(=O)(=O)c1ccc(NC(=O)CCC2c3c(F)cccc3C(=O)N2Cc2ccc(F)cc2)nc1 (stereo not drawn) [Compound 34, 3-[7-Fluoro-2-(4-fluoro-benzyl)-3-oxo-2,3-dihydro-1H-isoindol-1-yl]-N-(5-sulfamoyl-pyridin-2-yl)-propionamide]
  EC50: 407 nM
  EC100%: 4.3 µM
  activation at 50 µM: 142%

## O=C(CCC1c2c(F)cccc2C(=O)N1Cc1ccc(F)cc1)Nc1ccc(-c2ccc(F)cc2)cn1 (stereo not drawn) [Compound 33, 3-[7-Fluoro-2-(4-fluoro-benzyl)-3-oxo-2,3-dihydro-1H-isoindol-1-yl]-N-[5-(4-fluoro-Phenyl)-pyridin-2-yl]-propionamide]
  EC50: 488 nM
  EC100%: 4.5 µM
  activation at 50 µM: 177%

## O=C(CCC1c2c(F)cccc2C(=O)N1Cc1ccc(F)cc1)Nc1ccc(Br)cn1 (stereo not drawn) [Compound 32, N-(5-Bromo-pyridin-2-yl)-3-[7-fluoro-2-(4-fluoro-benzyl)-3-oxo-2,3-dihydro-1H-isoindol-1-yl]-propionamide]
  EC50: 13 nM
  EC100%: 0.39 µM
  activation at 50 µM: 147%

## O=C(CCC1c2c(F)cccc2C(=O)N1Cc1ccc(F)cc1)Nc1cnccn1 (stereo not drawn) [Compound 13, 3-[7-Fluoro-2-(4-fluoro-benzyl)-3-oxo-2,3-dihydro-1H-isoindol-1-yl]-N-pyrazin-2-yl-propionamide]
  EC50: 240 nM
  EC100%: 0.88 µM
  activation at 50 µM: 272%

## COc1ccc(CN2C(=O)c3ccccc3C2COC(=O)Nc2ccccn2)cc1 (stereo not drawn) [Compound 19, Pyridin-2-yl-carbamic acid 2-(4-methoxy-benzyl)-3-oxo-2,3-dihydro-1H-isoindol-1-ylmethyl ester]
  EC50: 4800 nM
  EC100%: 70 µM
  activation at 50 µM: 115%

## COC(=O)c1ccc(NC(=O)CC[C@H]2c3c(F)cccc3C(=O)N2Cc2ccc(F)cc2)nc1 [Compound 51, (S)-6-{3-[7-Fluoro-2-(4-fluoro-benzyl)-3-oxo-2,3-dihydro-1H-isoindol-1-yl]-propionylamino}-nicotinic acid methyl ester]
  EC50: 8.9 nM
  EC100%: 0.082 µM
  activation at 50 µM: 223%

## O=C(CCC1c2c(Cl)cccc2C(=O)N1Cc1ccc(F)cc1)Nc1ccccn1 (stereo not drawn) [Compound 36, 3-[7-Chloro-2-(4-fluoro-benzyl)-3-oxo-2,3-dihydro-1H-isoindol-1-yl]-N-pyridin-2-yl-propionamide]
  EC50: 143 nM
  EC100%: 0.411 µM
  activation at 50 µM: 342%

## CS(=O)(=O)c1ccc(NC(=O)CCC2c3c(F)cccc3C(=O)N2Cc2ccc(F)cc2)nc1 (stereo not drawn) [Compound 48, 3-[7-Fluoro-2-(4-fluoro-benzyl)-3-oxo-2,3-dihydro-1H-isoindol-1-yl]-N-(5-methanesulfonyl-pyridin-2-yl)-propionamide]
  EC50: 17000 nM
  activation at 50 µM: 62.8%

## O=C(Nc1ccccn1)OCCC1c2cccc(F)c2C(=O)N1Cc1ccc(F)cc1 (stereo not drawn) [Compound 17, Pyridin-2-yl-carbamic acid 2-[4-fluoro-2-(4-fluoro-benzyl)-3-oxo-2,3-dihydro-1H-isoindol-1-yl]-ethyl ester]
  activation at 50 µM: 23.8%

## O=C(CCC1c2c(F)cccc2C(=O)N1Cc1ccc(F)cc1)Nc1cc2ccccc2cn1 (stereo not drawn) [Compound 29, 3-[7-Fluoro-2-(4-fluoro-benzyl)-3-oxo-2,3-dihydro-1H-isoindol-1-yl]-N-isoquinolin-3-yl-propionamide]
  EC50: 46 nM
  EC100%: 0.32 µM
  activation at 50 µM: 212%
